Results from article PMC11206396 (Chemical Science, 2024).
Where two headings read alike, the source gives them in different places. Positions of bridges follow the written chain, without caps; N, C: chain ends. Residues, ends and D or L forms follow the SMILES beside them. Chains are numbered I, II in the order given. *: point of attachment. X5 = Cc1cc(NC(=O)CCC(=O)O)ccc1-c1cc(CN2CCN(CC(=O)O)CCN(CC(=O)O)CCN(CC(=O)O)CC2)nc(C(=O)*)c1; X2 = CC(=O)Nc1ccc(-c2cc(CN3CCN(CC(=O)O)CCN(CC(=O)O)CCN(CC(=O)O)CC3)nc(C(=O)*)c2)c(C)c1; X4 = Cc1cc(NC(=O)CCN)ccc1-c1cc(CN2CCN(CC(=O)O)CCN(CC(=O)O)CCN(CC(=O)O)CC2)nc(C(=O)*)c1; X1 = CC(=O)Nc1ccc(-c2cc(CN3CCN(CC(=O)O)CCN(CC(=O)O)CCN(CC(=O)O)CC3)nc(C(=O)*)c2)cc1; X3 = COc1ccc(-c2cc(CN3CCN(CC(=O)O)CCN(CC(=O)O)CCN(CC(=O)O)CC3)nc(C(=O)*)c2)c(C)c1

Legend:
[1] = test system: HeLa cells; assay: Two-photon microscopy (2PM) imaging of live cells: internalization and cytosolic delivery; type: cell-based; settings: for cytosolic delivery (diffuse Ln3+ emission): 10 μM; for cytosolic delivery (diffuse Ln3+ emission) / co-internalization of a Tb3+/Eu3+ probe mixture: 2P excitation 720 nm; for co-internalization of a Tb3+/Eu3+ probe mixture: 1 h, Tb probe 10 μM + dTAT[Eu·L-Ar-NHAc] 5 μM
[2] = test system: HeLa cells; assay: MTT proliferation assay (cytotoxicity)
[3] = test system: HEK293T cells; assay: Two-photon microscopy (2PM) imaging of live cells: internalization and cytosolic delivery; type: cell-based; settings: 1 h, 10 μM
Description: (§1) Fig. 7 2PM imaging (λex = 720 nm) of living HEK293T (A) and MRC5 (B) cells incubated 1 h with dTAT[Eu·L-Ar-NHAc] (10 μM) in RPMI medium. Top: DIC, emission recorded using a 465–680 nm bp filter and merge; Bottom: linear unmixing of autofluorescence (AF) and Eu^3+ emission and merge. Scale bars correspond to 10 μm. […]
(§2) dependence for each sample (Fig. S9), the incident power was adjusted to 35 mW to characterize the two-photon absorption spectra. Calibration of the 2P absorption spectra was performed at each excitation wavelength by comparison with that of fluorescein (10 µM, pH 11) as reference compound.[12]
(§3) General: HeLa, MRC5 and HEK293 cell lines were purchased from the ATCC and agreed by French ethic boards […]
(§4) Cell culture: HeLa cells were grown in RPMI medium supplemented with 10% fetal bovine serum (v/v) at 37°C in a 5% CO2 humidified atmosphere.
(§5) Peptides delivery in live cells: HeLa cells were seeded at 3´10^4 cells/well onto an 8-chamber Labtek-I coverglass system.
(§6) After 24 h, cells were washed three times with PBS. Cells were incubated with dTAT [Ln·L] (10 µM) in RPMI medium (without phenol red and without serum) or PBS at 37°C for 1 h. […]
(§7) Temporal Sampling Lifetime Imaging Microscopy (TSLIM) was used to record luminescence lifetime decay in cells (single pulsed excitation with the 7.56 μs temporal resolution).[13] […]

[4] = test system: MRC5 cells; assay: as above; type: cell-based; settings: 1 h, 10 μM
Description: as §1, §2, §3, §4, §5, §6, §7

[5] = live HeLa cells, 1 h incubation
[6] = read-out: IC50 (concentration causing a 50% reduction in proliferation), MTT proliferation assay, 2 h incubation

| SMILES | cytosolic delivery (diffuse Ln3+ emission) [1, 5] | IC50 [2, 6] [µM] | co-internalization of a Tb3+/Eu3+ probe mixture ([1]; HeLa cells) | other results |
| --- | --- | --- | --- | --- |
| CC(=O)Nc1ccc(-c2cc(CN3CCN(CC(=O)O)CCN(CC(=O)O)CCN(CC(=O)O)CC3)nc(C(=O)NCCCC[C@H](NC(=O)[C@@H](N)CSSC[C@H](N)C(=O)N[C@@H](CCCCNC(=O)c3cc(-c4ccc(NC(C)=O)cc4C)cc(CN4CCN(CC(=O)O)CCN(CC(=O)O)CCN(CC(=O)O)CC4)n3)C(=O)N[C@@H](CCCNC(=N)N)C(=O)N[C@@H](CCCCN)C(=O)N[C@@H](CCCCN)C(=O)N[C@@H](CCCNC(=N)N)C(=O)N[C@@H](CCCNC(=N)N)C(=O)N[C@@H](CCC(N)=O)C(=O)N[C@@H](CCCNC(=N)N)C(=O)N[C@@H](CCCNC(=N)N)C(=O)N[C@@H](CCCNC(=N)N)C(=O)NCC(N)=O)C(=O)N[C@@H](CCCNC(=N)N)C(=O)N[C@@H](CCCCN)C(=O)N[C@@H](CCCCN)C(=O)N[C@@H](CCCNC(=N)N)C(=O)N[C@@H](CCCNC(=N)N)C(=O)N[C@@H](CCC(N)=O)C(=O)N[C@@H](CCCNC(=N)N)C(=O)N[C@@H](CCCNC(=N)N)C(=O)N[C@@H](CCCNC(=N)N)C(=O)NCC(N)=O)c2)c(C)c1 [dTAT[Tb·L-^MeAr-NHAc]] (I: H-CK(X2)RKKRRQRRRG-NH2 / II: H-CK(X2)RKKRRQRRRG-NH2; disulfide I:1-II:1) | cytosolic delivery | 7.6 ± 1.6 |  | IC50 ([2]; read-out: IC50 (concentration causing a 50% reduction in proliferation), MTT proliferation assay, 2 h incubation, listed as dTAT[Tb·L-^MeAr-HNAc]): < 10 µM |
| COc1ccc(-c2cc(CN3CCN(CC(=O)O)CCN(CC(=O)O)CCN(CC(=O)O)CC3)nc(C(=O)NCCCC[C@H](NC(=O)[C@@H](N)CSSC[C@H](N)C(=O)N[C@@H](CCCCNC(=O)c3cc(-c4ccc(OC)cc4C)cc(CN4CCN(CC(=O)O)CCN(CC(=O)O)CCN(CC(=O)O)CC4)n3)C(=O)N[C@@H](CCCNC(=N)N)C(=O)N[C@@H](CCCCN)C(=O)N[C@@H](CCCCN)C(=O)N[C@@H](CCCNC(=N)N)C(=O)N[C@@H](CCCNC(=N)N)C(=O)N[C@@H](CCC(N)=O)C(=O)N[C@@H](CCCNC(=N)N)C(=O)N[C@@H](CCCNC(=N)N)C(=O)N[C@@H](CCCNC(=N)N)C(=O)NCC(N)=O)C(=O)N[C@@H](CCCNC(=N)N)C(=O)N[C@@H](CCCCN)C(=O)N[C@@H](CCCCN)C(=O)N[C@@H](CCCNC(=N)N)C(=O)N[C@@H](CCCNC(=N)N)C(=O)N[C@@H](CCC(N)=O)C(=O)N[C@@H](CCCNC(=N)N)C(=O)N[C@@H](CCCNC(=N)N)C(=O)N[C@@H](CCCNC(=N)N)C(=O)NCC(N)=O)c2)c(C)c1 [dTAT[Tb·L-^MeAr-OMe]] (I: H-CK(X3)RKKRRQRRRG-NH2 / II: H-CK(X3)RKKRRQRRRG-NH2; disulfide I:1-II:1) | successful cytosolic delivery | 18 ± 3 |  |  |
| CC(=O)Nc1ccc(-c2cc(CN3CCN(CC(=O)O)CCN(CC(=O)O)CCN(CC(=O)O)CC3)nc(C(=O)NCCCC[C@H](NC(=O)[C@@H](N)CSSC[C@H](N)C(=O)N[C@@H](CCCCNC(=O)c3cc(-c4ccc(NC(C)=O)cc4)cc(CN4CCN(CC(=O)O)CCN(CC(=O)O)CCN(CC(=O)O)CC4)n3)C(=O)N[C@@H](CCCNC(=N)N)C(=O)N[C@@H](CCCCN)C(=O)N[C@@H](CCCCN)C(=O)N[C@@H](CCCNC(=N)N)C(=O)N[C@@H](CCCNC(=N)N)C(=O)N[C@@H](CCC(N)=O)C(=O)N[C@@H](CCCNC(=N)N)C(=O)N[C@@H](CCCNC(=N)N)C(=O)N[C@@H](CCCNC(=N)N)C(=O)NCC(N)=O)C(=O)N[C@@H](CCCNC(=N)N)C(=O)N[C@@H](CCCCN)C(=O)N[C@@H](CCCCN)C(=O)N[C@@H](CCCNC(=N)N)C(=O)N[C@@H](CCCNC(=N)N)C(=O)N[C@@H](CCC(N)=O)C(=O)N[C@@H](CCCNC(=N)N)C(=O)N[C@@H](CCCNC(=N)N)C(=O)N[C@@H](CCCNC(=N)N)C(=O)NCC(N)=O)c2)cc1 [dTAT[Eu·L-Ar-NHAc]] (I: H-CK(X1)RKKRRQRRRG-NH2 / II: H-CK(X1)RKKRRQRRRG-NH2; disulfide I:1-II:1; N-terminus assumed) | cytosolic delivery |  | co-internalized | number of cells showing cytosolic staining (diffuse Eu3+ emission) ([1]; HeLa cells, 5 μM, 1 h incubation, over 6 hours after washing, determined visually): 34–38%; cell staining pattern at low concentration ([1]; live HeLa cells, 2.5 μM, 1 h incubation): only show punctate Eu^3+ around the nucleus; cytosolic delivery (diffuse Eu3+ localization) [3]: successful cytosolic delivery; cytosolic delivery (diffuse Eu3+ localization) [4]: successful cytosolic delivery; toxicity at the concentration used for 2PM ([2]; MTT assay, 10 μM): no toxicity |
| Cc1cc(NC(=O)CCN)ccc1-c1cc(CN2CCN(CC(=O)O)CCN(CC(=O)O)CCN(CC(=O)O)CC2)nc(C(=O)NCCCC[C@H](NC(=O)[C@@H](N)CSSC[C@H](N)C(=O)N[C@@H](CCCCNC(=O)c2cc(-c3ccc(NC(=O)CCN)cc3C)cc(CN3CCN(CC(=O)O)CCN(CC(=O)O)CCN(CC(=O)O)CC3)n2)C(=O)N[C@@H](CCCNC(=N)N)C(=O)N[C@@H](CCCCN)C(=O)N[C@@H](CCCCN)C(=O)N[C@@H](CCCNC(=N)N)C(=O)N[C@@H](CCCNC(=N)N)C(=O)N[C@@H](CCC(N)=O)C(=O)N[C@@H](CCCNC(=N)N)C(=O)N[C@@H](CCCNC(=N)N)C(=O)N[C@@H](CCCNC(=N)N)C(=O)NCC(N)=O)C(=O)N[C@@H](CCCNC(=N)N)C(=O)N[C@@H](CCCCN)C(=O)N[C@@H](CCCCN)C(=O)N[C@@H](CCCNC(=N)N)C(=O)N[C@@H](CCCNC(=N)N)C(=O)N[C@@H](CCC(N)=O)C(=O)N[C@@H](CCCNC(=N)N)C(=O)N[C@@H](CCCNC(=N)N)C(=O)N[C@@H](CCCNC(=N)N)C(=O)NCC(N)=O)c1 [dTAT[Tb·L-^MeAr-NHβAla(+)]] (I: H-CK(X4)RKKRRQRRRG-NH2 / II: H-CK(X4)RKKRRQRRRG-NH2; disulfide I:1-II:1) | efficiently delivered to the cytosol |  | co-internalized |  |
| Cc1cc(NC(=O)CCC(=O)O)ccc1-c1cc(CN2CCN(CC(=O)O)CCN(CC(=O)O)CCN(CC(=O)O)CC2)nc(C(=O)NCCCC[C@H](NC(=O)[C@@H](N)CSSC[C@H](N)C(=O)N[C@@H](CCCCNC(=O)c2cc(-c3ccc(NC(=O)CCC(=O)O)cc3C)cc(CN3CCN(CC(=O)O)CCN(CC(=O)O)CCN(CC(=O)O)CC3)n2)C(=O)N[C@@H](CCCNC(=N)N)C(=O)N[C@@H](CCCCN)C(=O)N[C@@H](CCCCN)C(=O)N[C@@H](CCCNC(=N)N)C(=O)N[C@@H](CCCNC(=N)N)C(=O)N[C@@H](CCC(N)=O)C(=O)N[C@@H](CCCNC(=N)N)C(=O)N[C@@H](CCCNC(=N)N)C(=O)N[C@@H](CCCNC(=N)N)C(=O)NCC(N)=O)C(=O)N[C@@H](CCCNC(=N)N)C(=O)N[C@@H](CCCCN)C(=O)N[C@@H](CCCCN)C(=O)N[C@@H](CCCNC(=N)N)C(=O)N[C@@H](CCCNC(=N)N)C(=O)N[C@@H](CCC(N)=O)C(=O)N[C@@H](CCCNC(=N)N)C(=O)N[C@@H](CCCNC(=N)N)C(=O)N[C@@H](CCCNC(=N)N)C(=O)NCC(N)=O)c1 [dTAT[Tb·L-^MeAr-NHSuc(−)]] (I: H-CK(X5)RKKRRQRRRG-NH2 / II: H-CK(X5)RKKRRQRRRG-NH2; disulfide I:1-II:1) | efficiently delivered to the cytosol |  |  |  |
